# Reference: PMC3121759 (PLoS ONE, 2011)
# How the values were obtained:
# Histamine H2 = assay: Radioligand binding, [3H]Cimetidine; settings: Histamine H2, [3H]Cimetidine, duplicate
# Experimental: (§1) Table S1. Inhibition effect of CHIBA-3007 (1 µM) on radioligand binding to various receptors
# (§2) Test substance concentration: 1 µM, Positive substance concentration : 10 µM
# (§3) Data are expressed as the mean values of duplicate samples.
# (§4) The % inhibition was calculated from “100 – binding ratio”.
# (§5) Binding ratio: [(B - N) / (B0 - N)] × 100 (%) B: Bound radioactivity in the presence of test substance and positive substance (individual value), B0: Total bound radioactivity in the absence of test substance and positive substance (mean value), N: Non-specific bound radioactivity (mean value)
# Dopamine D1 = assay: Radioligand binding, [3H]SCH23390; settings: Dopamine D1, [3H]SCH23390, 1 µM, duplicate
# Experimental: as §1, §2, §3, §4, §5
# Dopamine D2 = assay: Radioligand binding, [3H]Spiperone; settings: Dopamine D2, [3H]Spiperone, duplicate
# Experimental: as §1, §2, §3, §4, §5
# Serotonin 5-HT2A = assay: Radioligand binding, [3H]Ketanserin; settings: duplicate
# Experimental: as §1, §2, §3, §4, §5
# [1] = system: Glutamate (NMDA phencyclidine site); assay: Radioligand binding, [3H]MK-801; settings: [3H]MK-801, 1 µM, duplicate
# Experimental: as §1, §2, §3, §4, §5
# Muscarinic M1 = assay: Radioligand binding, [3H]Pirenzepine; settings: Muscarinic M1, [3H]Pirenzepine, duplicate
# Experimental: as §1, §2, §3, §4, §5
# GABA -A (Agonist site) = assay: Radioligand binding, [3H]Muscimol; settings: duplicate
# Experimental: as §1, §2, §3, §4, §5
# Histamine H3 = assay: Radioligand binding, [3H]N-methyl histamine; settings: Histamine H3, [3H]N-methyl histamine, duplicate
# Experimental: as §1, §2, §3, §4, §5
# GlyT-1 [2] = molecular target: T1, GlyT-1 (Rattus norvegicus, UniProt P28572); assay: Drug inhibition of [3H]CHIBA-3007 binding to rat brain membranes; settings: [3H]CHIBA-3007 (1 nM), 120 min room temperature, mean ± S.E.M., n=3
# T1 construct: the tissues of whole brains or each specific brain region were homogenized; from tissue; host or cells: rat brain (whole brain or dissected regions; male Crl:CD (SD) rats)
# T1 sequence (P28572 1-638): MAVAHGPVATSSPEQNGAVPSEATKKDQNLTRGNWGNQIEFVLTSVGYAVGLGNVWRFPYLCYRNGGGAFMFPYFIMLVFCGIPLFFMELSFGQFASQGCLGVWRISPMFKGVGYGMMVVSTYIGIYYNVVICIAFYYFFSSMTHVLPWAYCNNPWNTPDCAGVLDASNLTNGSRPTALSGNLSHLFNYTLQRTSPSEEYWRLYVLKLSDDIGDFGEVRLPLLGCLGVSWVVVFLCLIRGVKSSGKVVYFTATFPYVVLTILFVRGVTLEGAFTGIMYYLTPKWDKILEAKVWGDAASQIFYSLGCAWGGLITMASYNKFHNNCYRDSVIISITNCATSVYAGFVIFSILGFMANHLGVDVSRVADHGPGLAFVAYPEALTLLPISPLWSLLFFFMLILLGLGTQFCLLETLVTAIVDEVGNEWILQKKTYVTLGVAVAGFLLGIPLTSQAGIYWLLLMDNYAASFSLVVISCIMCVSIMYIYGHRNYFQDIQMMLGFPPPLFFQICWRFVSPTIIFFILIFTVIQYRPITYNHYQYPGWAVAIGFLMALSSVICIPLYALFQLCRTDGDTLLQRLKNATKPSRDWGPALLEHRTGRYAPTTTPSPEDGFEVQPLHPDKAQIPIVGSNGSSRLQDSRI
# Experimental: The supernatant was discarded and the pellet was re-suspended, homogenized and centrifuged as above. The membrane pellet was washed and re-suspended in ice-cold HEPES buffer and was then centrifuged three times. The final pellet was re-suspended in 15 volumes of the buffer (120 mM NaCl, 2 mM KCl, 1 mM CaCl2, 1 mM MgCl2 10 mM HEPES, pH 7.5 at room temperature).
# The binding reaction was terminated by rapid vacuum filtration onto Whatman GF/B glass filters pretreated with 0.5% polyethyleneimine (Sigma-Aldrich Co.) using a 24-channel cell harvester (Brandell, Gaithersburg, MD). The filters were washed with 5 mL of ice-cold assay buffer 3 times, and placed in vials with 4 mL scintillation cocktail. The radioactivity trapped by the filters was determined using a liquid scintillation counter (Beckman LS-6500; Beckman Coulter K.K., Tokyo, Japan).
# (§6) The data are shown as the mean ± standard error of the mean (S.E.M.). The dissociation constant (Kd) and maximal binding (Bmax) values from saturation binding and the IC50 values from binding displacement by each drug were determined using the program GraphPad Prism (GraphPad Software, San Diego, CA). […] Correlation was analyzed by Pearson's Correlation Coefficient (PASW Statistics 19, Tokyo, Japan). Significance was set at p<0.05.
# Muscarinic M2 = assay: Radioligand binding, [3H]AF-DX-384; settings: Muscarinic M2, [3H]AF-DX-384, 1 µM, duplicate
# Experimental: as §1, §2, §3, §4, §5
# Opiate (Non-selective) = assay: Radioligand binding, [3H]Naloxone; settings: duplicate
# Experimental: as §1, §2, §3, §4, §5
# Glutamate (AMPA) = assay: Radioligand binding, [3H]AMPA; settings: duplicate
# Experimental: as §1, §2, §3, §4, §5
# Adenosine A1 = assay: Radioligand binding, [3H]DPCPX; settings: Adenosine A1, [3H]DPCPX, duplicate
# Experimental: as §1, §2, §3, §4, §5
# [3] = system: β-Adrenergic (Non-selective); assay: Radioligand binding, [3H]DHA; settings: duplicate
# Experimental: as §1, §2, §3, §4, §5
# Serotonin 5-HT1A = assay: Radioligand binding, [3H]8-OH DPAT; settings: duplicate
# Experimental: as §1, §2, §3, §4, §5
# Nicotinic Ni = assay: Radioligand binding, [3H]Nicotine; settings: duplicate
# Experimental: as §1, §2, §3, §4, §5
# [4] = 28 standard target binding profile; settings: 1 µM
# Experimental: as §1, §2, §3, §4, §5
# [5] = system: Glycine (Strychnine sensitive); assay: Radioligand binding, [3H]Strychnine; settings: duplicate
# Experimental: as §1, §2, §3, §4, §5
# [6] = system: Glutamate (Non-selective); assay: Radioligand binding, [3H]Glutamic acid; settings: duplicate
# Experimental: as §1, §2, §3, §4, §5
# [7] = system: Glutamate (NMDA glycine site); assay: Radioligand binding, [3H]MDL105519; settings: [3H]MDL105519, 1 µM, duplicate
# Experimental: as §1, §2, §3, §4, §5
# GABA- A (BZ central) = assay: Radioligand binding, [3H]Flunitrazepam; settings: duplicate
# Experimental: as §1, §2, §3, §4, §5
# Serotonin 5-HT3 (Human) = assay: Radioligand binding, [3H]GR65630; settings: [3H]GR65630, 1 µM, duplicate
# Experimental: as §1, §2, §3, §4, §5
# Histamine H1 (Central) = assay: Radioligand binding, [3H]Pyrilamine; settings: duplicate
# Experimental: as §1, §2, §3, §4, §5
# Adenosine A2 = assay: Radioligand binding, [3H]CGS21680; settings: Adenosine A2, [3H]CGS21680, 1 µM, duplicate
# Experimental: as §1, §2, §3, §4, §5
# Glutamate (Kainate) = assay: Radioligand binding, [3H]Kainic acid; settings: duplicate
# Experimental: as §1, §2, §3, §4, §5
# [8] = system: α1-Adrenergic (Non-selective); assay: Radioligand binding, [3H]Prazosin; settings: duplicate
# Experimental: as §1, §2, §3, §4, §5
# [9] = system: Glutamate (NMDA agonist site); assay: Radioligand binding, [3H]CGP-39653; settings: [3H]CGP-39653, 1 µM, duplicate
# Experimental: as §1, §2, §3, §4, §5
# GABA -B = assay: Radioligand binding, [3H]GABA; settings: duplicate
# Experimental: as §1, §2, §3, §4, §5
# Sigma (Non-selective) = assay: Radioligand binding, [3H]DTG; settings: duplicate
# Experimental: as §1, §2, §3, §4, §5
# GlyT-1 [10] = molecular target: T1, GlyT-1; assay: Inhibition of [14C]glycine uptake in rat brain membranes; format: biochemical
# Experimental: The homogenate was centrifuged at 1,000 g for 10 min to remove nuclei and debris, and then the supernatant was centrifuged again at 20,000 g for 20 min (synaptosomal P2 fraction). The pellet was washed and re-suspended in ice-cold 0.32 M sucrose, buffered with 10 mM HEPES (pH 7.4) and centrifuged again at 20,000 g for 20 min (washed P2 fraction). The pellet was re-suspended in 10 volumes of assay buffer with the following composition: 10 mM HEPES buffer (pH 7.4) containing 140 mM NaCl, 5.5 mM KCl, 1.8 mM CaCl2, 0.8 mM MgSO4, 5 mM glucose and 5 mM L-alanine (HB). The protein concentrations were measured by using a DC protein assay kit (Bio-Rad Laboratories Inc., Tokyo, Japan).
# Non-specific uptake was estimated in the presence of 30 µM SSR504734. […] The filters were washed by buffer, and the radioactivity trapped by the filters was determined using a liquid scintillation counter as described above.
# as §6
# [11] = system: α2-Adrenergic (Non-selective); assay: Radioligand binding, [3H]RX821002; settings: [3H]RX821002, 1 µM, duplicate
# Experimental: as §1, §2, §3, §4, §5
smiles,measurement,setting,value
"CN1CCCC[C@@H]1[C@@H](NC(=O)c1nccc(C(F)(F)F)c1Cl)c1ccsc1 [CHIBA-3007, 3-Chloro-N-((S)-((R)-1-methylpiperidin-2-yl)(thiophen-3-yl)methyl)-4-(trifluoromethyl)picolinamide]",% Inhibition (1 µM),Histamine H2,3.80%
same,% Inhibition (1 µM),Dopamine D1,2.32%
same,% Inhibition (1 µM),Dopamine D2,1.00%
same,% Inhibition (1 µM),Serotonin 5-HT2A,30.56%
same,% Inhibition (1 µM),[1],3.80%
same,% Inhibition (1 µM),Muscarinic M1,8.35%
same,% Inhibition (1 µM),GABA -A (Agonist site),0.20%
same,% Inhibition (1 µM),Histamine H3,0.00%
same,Ki,GlyT-1 [2],2.8 ± 0.17 nM
same,% Inhibition (1 µM),Muscarinic M2,16.31%
same,% Inhibition (1 µM),Opiate (Non-selective),43.44%
same,% Inhibition (1 µM),Glutamate (AMPA),3.27%
same,% Inhibition (1 µM),Adenosine A1,2.12%
same,% Inhibition (1 µM),[3],8.39%
same,% Inhibition (1 µM),Serotonin 5-HT1A,35.22%
same,% Inhibition (1 µM),Nicotinic Ni,2.10%
same,Inhibition in 28 standard target binding profile,[4],lower than 50%
same,% Inhibition (1 µM),[5],0.00%
same,% Inhibition (1 µM),[6],1.91%
same,% Inhibition (1 µM),[7],4.02%
same,% Inhibition (1 µM),GABA- A (BZ central),2.78%
same,% Inhibition (1 µM),Serotonin 5-HT3 (Human),7.36%
same,% Inhibition (1 µM),Histamine H1 (Central),1.83%
same,% Inhibition (1 µM),Adenosine A2,5.86%
same,% Inhibition (1 µM),Glutamate (Kainate),1.50%
same,% Inhibition (1 µM),[8],1.13%
same,% Inhibition (1 µM),[9],8.17%
same,% Inhibition (1 µM),GABA -B,8.19%
same,% Inhibition (1 µM),Sigma (Non-selective),24.20%
same,IC50,GlyT-1 [10],21.4 ± 8.4 nM
same,% Inhibition (1 µM),[11],20.98%
